Test results published in publication PMC3391414 (Journal of Agricultural and Food Chemistry, 2011).
Several values for one entry are separate records, joined by “and”; a condition that tells them apart may be missing. Equal values may be shown once. Entries after “also recorded” stand apart in the source; their conditions may differ. Read-outs that look alike come from different tables or passages of the source.

Tests used:
UGT1A1 = molecular target: T1, UGT1A1 (Homo sapiens, UniProt P22309); experiment: Glucuronidation by recombinant human UGT1A1
T1 sequence (P22309 26-533): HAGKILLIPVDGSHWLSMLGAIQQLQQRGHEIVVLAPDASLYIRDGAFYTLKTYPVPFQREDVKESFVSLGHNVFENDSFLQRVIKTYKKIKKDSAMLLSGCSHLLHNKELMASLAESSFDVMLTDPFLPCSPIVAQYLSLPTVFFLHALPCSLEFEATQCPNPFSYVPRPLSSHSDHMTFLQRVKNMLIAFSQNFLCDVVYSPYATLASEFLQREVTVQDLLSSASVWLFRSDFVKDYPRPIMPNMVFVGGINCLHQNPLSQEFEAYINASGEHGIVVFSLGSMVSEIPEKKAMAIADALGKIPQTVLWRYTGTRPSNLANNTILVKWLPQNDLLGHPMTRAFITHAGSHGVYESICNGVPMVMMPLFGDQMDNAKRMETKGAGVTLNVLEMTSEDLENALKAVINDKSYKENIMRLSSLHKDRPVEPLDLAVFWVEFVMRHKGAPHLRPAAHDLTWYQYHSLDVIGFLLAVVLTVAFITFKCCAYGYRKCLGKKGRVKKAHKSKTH

UGT1A8 [1] = molecular target: T2, UGT1A8 (Homo sapiens, UniProt Q9HAW9); experiment: Glucuronidation by recombinant human UGT1A8
T2 sequence (Q9HAW9 26-530): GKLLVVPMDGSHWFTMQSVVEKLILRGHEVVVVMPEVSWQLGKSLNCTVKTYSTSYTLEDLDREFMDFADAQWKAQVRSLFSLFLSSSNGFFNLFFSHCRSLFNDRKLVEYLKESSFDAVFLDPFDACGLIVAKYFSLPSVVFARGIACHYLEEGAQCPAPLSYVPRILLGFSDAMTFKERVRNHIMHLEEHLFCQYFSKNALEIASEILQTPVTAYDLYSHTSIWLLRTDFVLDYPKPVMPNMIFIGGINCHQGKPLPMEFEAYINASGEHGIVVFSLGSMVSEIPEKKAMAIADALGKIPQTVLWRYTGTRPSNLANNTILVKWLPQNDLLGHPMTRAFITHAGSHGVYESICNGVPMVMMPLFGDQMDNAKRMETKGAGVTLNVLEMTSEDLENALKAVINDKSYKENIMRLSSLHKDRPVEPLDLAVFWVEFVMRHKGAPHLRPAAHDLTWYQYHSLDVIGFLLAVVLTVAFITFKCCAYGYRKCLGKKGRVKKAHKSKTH

[2] = system: UGT 1A1, 1A3, 1A6, 1A7, 1A8, 1A9, 1A10 and 2B7; experiment: Glucuronidation by the panel of 8 recombinant human UGT isoforms; details: substrate 10 μM
UGT1A8 [3] = molecular target: T2, UGT1A8; details: 10 μM, pH 7.4
UGT1A10 = molecular target: T3, UGT1A10 (Homo sapiens, UniProt Q9HAW8); details: 10 μM, pH 7.4
T3 sequence (Q9HAW8 26-530): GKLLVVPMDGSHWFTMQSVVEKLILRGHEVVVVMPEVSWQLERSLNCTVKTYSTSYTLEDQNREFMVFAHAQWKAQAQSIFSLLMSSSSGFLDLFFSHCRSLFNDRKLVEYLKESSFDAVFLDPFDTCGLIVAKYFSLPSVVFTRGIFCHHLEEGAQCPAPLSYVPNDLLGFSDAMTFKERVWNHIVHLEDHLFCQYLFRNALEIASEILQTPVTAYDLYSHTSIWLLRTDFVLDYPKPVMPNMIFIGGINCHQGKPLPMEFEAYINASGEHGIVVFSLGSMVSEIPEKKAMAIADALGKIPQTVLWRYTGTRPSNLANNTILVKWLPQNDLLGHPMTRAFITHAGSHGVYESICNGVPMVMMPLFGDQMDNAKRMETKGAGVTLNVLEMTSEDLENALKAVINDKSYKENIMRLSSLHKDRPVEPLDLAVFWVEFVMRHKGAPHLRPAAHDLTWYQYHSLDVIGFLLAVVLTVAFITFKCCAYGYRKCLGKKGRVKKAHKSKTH

UGT2B7 = molecular target: T4, UGT2B7 (Homo sapiens, UniProt P16662); details: 10 μM, pH 7.4
T4 sequence (P16662 24-529): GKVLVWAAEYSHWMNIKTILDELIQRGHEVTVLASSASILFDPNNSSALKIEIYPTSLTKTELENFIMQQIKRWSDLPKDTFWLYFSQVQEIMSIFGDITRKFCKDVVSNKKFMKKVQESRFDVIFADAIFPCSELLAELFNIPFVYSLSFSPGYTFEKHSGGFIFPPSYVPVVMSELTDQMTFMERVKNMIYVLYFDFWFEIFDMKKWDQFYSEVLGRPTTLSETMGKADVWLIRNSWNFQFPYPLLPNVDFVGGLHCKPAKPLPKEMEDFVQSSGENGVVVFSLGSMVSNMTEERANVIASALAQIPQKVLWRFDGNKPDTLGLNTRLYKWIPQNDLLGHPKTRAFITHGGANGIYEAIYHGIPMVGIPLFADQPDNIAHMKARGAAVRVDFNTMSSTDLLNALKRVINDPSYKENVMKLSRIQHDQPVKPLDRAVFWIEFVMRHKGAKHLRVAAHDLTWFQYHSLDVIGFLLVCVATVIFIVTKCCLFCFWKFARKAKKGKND

| Degree of regiospecificity (major glucuronide in bracket) (UGT1A1; UGT1A1, substrate 2.5 μM) | Degree of regiospecificity (major glucuronide in bracket) (UGT1A1; UGT1A1, substrate 10 μM) | Hydroxyl positions glucuronidated (UGT1A1; UGT1A1, substrate 10 μM) | Degree of regiospecificity (3-O vs 7-O) (UGT1A1; UGT1A1, substrate 35 μM) | Hydroxyl positions glucuronidated (UGT1A8 [1]; UGT1A8, substrate 10 μM) | Hydroxyl positions glucuronidated (UGT1A8 [3]) | Structure (SMILES) | Degree of regiospecificity (major glucuronide in bracket) (UGT1A1; UGT1A1, substrate 2.5 μM, listed as 5,7,4’THFnol) | Degree of regiospecificity (major glucuronide in bracket) (UGT1A1; UGT1A1, substrate 10 μM, listed as 5,7,4’THFnol) | Degree of regiospecificity (3-O vs 7-O) (UGT1A8 [1]; UGT1A8, substrate 35 μM) | Glucuronidation and regiospecificity across the 8 UGT isoforms [2] | Hydroxyl positions glucuronidated (UGT1A10) | Hydroxyl positions glucuronidated (UGT2B7) |
| --- | --- | --- | --- | --- | --- | --- | --- | --- | --- | --- | --- | --- |
| Weak (7-O) | No (3-O, 7-O) | glucuronidated 3-O, 7-O and 4’-O | no regiospecificity | glucuronidated 3-O, 7-O and 4’-O | – | O=c1c(O)c(-c2ccc(O)cc2)oc2cc(O)cc(O)c12 [5,7,4'THFnol, 3,5,7,4’-tetrahydroxyflavone] | weakly preferred the glucuronidation of 7-O position | no regiospecific preference between 3-O and 7-O; also recorded: no regiospecificity | weak regiospecificity and 7-O was the preferred position | 5-O position was not significantly glucuronidated by any isoform | – | – |
| – | – | – | – | – | glucuronidated 7-O position only | O=c1cc(-c2ccccc2)oc2cc(O)cc(O)c12 [5,7DHF, 5,7-dihydroxyflavone] | – | – | – | – | glucuronidated both 7-O and 5-O positions | glucuronidated both 7-O and 5-O positions |
